Measured values published in patent US20230098667A1, “BENZODIAZEPINE DERIVATIVES, COMPOSITIONS, AND METHODS FOR TREATING COGNITIVE IMPAIRMENT” (priority 2019, published 2023).
“Also recorded” adds a separate entry of the source.

Legend:
[1] = biological target: T1, GABAA receptors α5β3γ2 (GABA α5) (Homo sapiens, UniProt P18507+P31644); experiment: Binding activity on GABAAR: inhibition of [3H]Ro15-1788 binding, membranes of Ltk cells; settings: α5β3γ2 Ltk cell membranes
T1 construct: membranes
T1 sequence (P31644 32-462): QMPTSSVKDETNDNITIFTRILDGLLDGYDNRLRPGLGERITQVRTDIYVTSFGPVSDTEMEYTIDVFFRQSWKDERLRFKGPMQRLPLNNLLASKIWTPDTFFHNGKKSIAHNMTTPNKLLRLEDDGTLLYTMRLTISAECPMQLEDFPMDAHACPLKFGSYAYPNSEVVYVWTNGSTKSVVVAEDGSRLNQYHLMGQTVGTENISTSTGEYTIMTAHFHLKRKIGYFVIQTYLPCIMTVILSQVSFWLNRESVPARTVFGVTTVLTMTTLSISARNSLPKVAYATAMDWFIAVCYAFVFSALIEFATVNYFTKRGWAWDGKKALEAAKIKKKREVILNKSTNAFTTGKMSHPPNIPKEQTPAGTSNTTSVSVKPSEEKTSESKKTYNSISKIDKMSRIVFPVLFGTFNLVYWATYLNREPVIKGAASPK
T1 sequence (P28472 26-473 partner): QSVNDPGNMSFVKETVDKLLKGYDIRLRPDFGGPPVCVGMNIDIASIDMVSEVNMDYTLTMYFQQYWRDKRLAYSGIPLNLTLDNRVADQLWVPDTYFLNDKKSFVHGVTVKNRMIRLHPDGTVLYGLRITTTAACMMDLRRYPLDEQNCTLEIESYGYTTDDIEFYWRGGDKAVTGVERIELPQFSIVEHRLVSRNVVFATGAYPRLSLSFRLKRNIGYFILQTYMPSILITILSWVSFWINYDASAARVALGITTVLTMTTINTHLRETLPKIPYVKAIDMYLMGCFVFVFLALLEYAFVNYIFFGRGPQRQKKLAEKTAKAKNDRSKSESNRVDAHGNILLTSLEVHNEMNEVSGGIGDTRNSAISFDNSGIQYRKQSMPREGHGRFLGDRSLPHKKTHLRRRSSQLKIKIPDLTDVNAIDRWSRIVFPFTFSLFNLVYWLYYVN
T1 sequence (P18507 40-467 limits assumed): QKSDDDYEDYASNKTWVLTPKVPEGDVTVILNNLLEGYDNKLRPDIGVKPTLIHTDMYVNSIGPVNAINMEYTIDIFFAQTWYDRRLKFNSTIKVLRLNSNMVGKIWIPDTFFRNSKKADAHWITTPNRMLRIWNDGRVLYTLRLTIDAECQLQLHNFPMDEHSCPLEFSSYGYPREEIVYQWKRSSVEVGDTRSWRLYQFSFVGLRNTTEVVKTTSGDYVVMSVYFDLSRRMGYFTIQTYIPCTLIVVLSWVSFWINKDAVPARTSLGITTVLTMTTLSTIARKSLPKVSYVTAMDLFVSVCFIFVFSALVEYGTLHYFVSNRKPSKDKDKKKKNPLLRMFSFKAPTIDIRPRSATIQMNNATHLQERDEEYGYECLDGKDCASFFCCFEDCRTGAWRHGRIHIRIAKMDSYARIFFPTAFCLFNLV
Experimental: Tissue culture and Membrane Preparation: The binding was performed on Ltk cells stably expressing GABAA receptors: α1β1γ2, α2β3γ2, α3β3γ2 and α5β3γ2 (provided by Merck Co., NJ, USA). Cells were seeded in 100 mm culture plates in DMEM/F12 medium containing 10% serum and antibiotics in 5% CO2 and allowed to grow for 1-2 days. GABAAR expression was then induced by dexamethasone as follows: 0.5 μM for 1 day for α5 containing and 2 μM for 3 days for α1, α2 and α3 containing GABAARs. After induction, cells were collected by scraping into Dulbecco's Phosphate buffered saline (DPBS, pH 7.4, Invitrogen, Carlsbad, Calif., USA) and centrifuged at 150×g for 10 min. The pellet was washed twice by re-suspension and centrifugation. The cell pellets from at least 5 different preps were combined, suspended in the binding assay buffer (50 mM KH2PO4; 1 mM EDTA; 0.2 M KCl, pH 7.4) and membranes prepared by sonication (3-5 times, 30 sec) using Branson Sonifier 150 (G. Heinmann, Germany). Protein content was determined using BCA assay (Bio-Rad Labs, Reinach, Switzerland) with Bovine Serum Albumin (Sigma Aldrich, St. Louis, Mo., USA) as the standard. Aliquots were prepared and stored at −20° C. for further use in binding assays.
Ligand Binding: Saturation binding curves were obtained by incubating membranes with increasing concentrations (0.01-8 nM) of [^3H]Rol5-1788 (Flumazepil, 75-85 Ci/mmol, PerkinElmer, MA, USA), with nonspecific binding measured in the presence of 10 μM diazepam.
All binding assays were performed for 1 h at 4° C. in assay buffer. The total assay volume was 0.5 ml containing 0.2 mg/ml protein for α5 and 0.4 mg/ml for α1, α2, and α3 containing GABAAR membranes. Incubations were terminated by filtration through GF/B filters using a 24-Cell Harvestor (Brandel, Gaithersburg, Md., USA) followed by 3 washes with ice-cold assay buffer. Filters were transferred to scintillation vials, 5 ml scintillation liquid added, vortex-mixed and kept in dark. Next day, radioactivity was obtained using a scintillation counter (Beckman Coulter, Brea, Calif., USA). All assays were performed in triplicate.
Data Analyses: Saturation and inhibition curves were obtained using GraphPad Prism software (GraphPad Software, Inc., CA, USA).

GABAA α5 receptor = biological target: T2, GABAA α5 receptor (Rattus norvegicus, UniProt P19969); experiment: GABAA α5 receptor occupancy with Ro 15-4513 tracer; format: in vivo, Long Evans rats; settings: i.v.
T2 construct: from tissue; host or cells: brain of living Long Evans rats; hippocampus and cerebellum dissected after i.v. dosing
Excerpt: Food and water were available ad libitum.

aged-impaired (AI) rats [2] = experiment: Morris water maze behavioral task; format: in vivo, rat; settings: 100 μg ICV
Experimental: The effects of 6,6 dimethyl-3-(3-hydroxypropyl)thio-1-(thiazol-2-yl)-6,7-dihydro-2-benzothiophen-4(5H)-one on the in vivo spatial memory retention of aged-impaired (AI) rats were assessed in a Morris water maze behavioral task. A water maze is a pool surrounded with a novel set of patterns relative to the maze.
Cognitively impaired aged rats were implanted unilaterally with a cannula into the lateral ventricle. Stereotaxic coordinates were 1.0 mm posterior to bregma, 1.5 mm lateral to midline, and 3.5 mm ventral to the skull surface. After about a week of recovery, the rats were pre-trained in a water maze for 2 days (6 trials per day) to locate a submerged escape platform hidden underneath the surface of the pool, in which the escape platform location varied from day to day. No intracerebroventricular (ICV) infusion was given during pre-training.
After pre-training, rats received ICV infusion of either 100 μg 6,6 dimethyl-3-(3-hydroxypropyl)thio-1-(thiazol-2-yl)-6,7-dihydro-2-benzothiophen-4(5H)-one (n=6) in 5 μl DMSO or vehicle DMSO (n=5) 40 min prior to water maze training and testing. Training consisted of 8 trials per day for 2 days where the hidden escape platform remained in the same location. Rats were given 60 seconds to locate the platform with a 60 seconds inter-trial interval. The rats were given a probe test (120 seconds) 24 hr. after the end of training where the escape platform was removed. During the training, there were 4 blocks, where each block had 4 training trials.
During a test trial 24 hr. after training, the escape platform was removed. The search/swim pattern of the rats was used to measure whether the rats remember where the escape platform was located during pre-trial training in order to test for the long-term memory of the rats. In this trial, “target annulus” is a designated area 1.5 times the size of the escape platform around the area where the platform was located during pre-trial training. “Opposite annulus” is a control area of the same size as the size of the target annulus, which is located opposite to the target annulus in the pool. If the rats had good long term memory, they would tend to search in the area surrounding the location where the platform was during the pre-trial training (i.e., the “target” annulus; and not the “opposite” annulus). “Time in annulus” is the amount of time in seconds that the rat spent in the target or opposite annulus area. “Number (#) of crossings” in annulus is the number of times the rat swam across the target or opposite annulus area.

aged-impaired (AI) rats [3] = experiment: Radial Arm Maze (RAM) behavioral task, four-hour delay; format: in vivo, rat
Experimental: The same experiment was repeated using the same vehicle control and doses of ethyl 3-methoxy-7-methyl-9H-benzo[f]imidazo[1,5-a][1,2,4]triazolo[4,3-d][1,4]diazepine-10-carboxylate, where the vehicle control was tested 5 times, the 3 mg/kg dose of ethyl 3-methoxy-7-methyl-9H-benzo[f]imidazo[1,5-a][1,2,4]triazolo[4,3-d][1,4]diazepine-10-carboxylate was tested 4 times, and the other doses of ethyl 3-methoxy-7-methyl-9H-benzo[f]imidazo[1,5-a][1,2,4]triazolo[4,3-d][1,4]diazepine-10-carboxylate were tested twice.
Parametric statistics (paired t-tests) was used to compare the retention test performance of the AI rats in the four-hour delay version of the RAM task in the context of different doses of ethyl 3-methoxy-7-methyl-9H-benzo[f]imidazo[1,5-a][1,2,4]triazolo[4,3-d][1,4]diazepine-10-carboxylate and vehicle control (see FIG. 5).

[4] = probe test 24 hr. after training

T2 sequence (P19969 32-464 limits assumed): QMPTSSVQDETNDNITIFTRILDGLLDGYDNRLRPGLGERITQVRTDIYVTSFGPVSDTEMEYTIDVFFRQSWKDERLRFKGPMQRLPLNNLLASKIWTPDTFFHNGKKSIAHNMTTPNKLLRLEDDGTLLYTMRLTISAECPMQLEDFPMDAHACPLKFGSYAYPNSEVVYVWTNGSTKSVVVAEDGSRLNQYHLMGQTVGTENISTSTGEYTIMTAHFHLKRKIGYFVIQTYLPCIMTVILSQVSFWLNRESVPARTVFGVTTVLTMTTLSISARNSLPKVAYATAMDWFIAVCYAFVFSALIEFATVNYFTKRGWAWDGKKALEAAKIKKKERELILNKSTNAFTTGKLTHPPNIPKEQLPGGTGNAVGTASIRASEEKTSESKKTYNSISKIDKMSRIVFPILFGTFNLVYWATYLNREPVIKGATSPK

COCc1nnc2n1Cc1c(C#Cc3cn(C)nc3OC)ncn1-c1ccc(OC)cc1-2 [Compound 736]
Ki [1]: < 100 nM

COCc1nnn2c1Cc1c(C#Cc3cn(C)nc3OC)ncn1-c1ccc(Cl)cc1-2 [Compound 738]
Ki [1]: < 100 nM

COCc1nnn2c1Cc1c(C#Cc3cnc(C)n3C)ncn1-c1ccc(Cl)cc1-2 [Compound 740]
Ki [1]: < 100 nM

CCOC(=O)c1ncn2c1CN(C)C(=O)c1cc(N=[N+]=[N-])ccc1-2 [Ro 15-4513]
levels of Ro 15-4513 in cerebellum (GABAA α5 receptor; tracer 1 μg/kg, after vehicle): 0.36 ± 0.02 ng/g
levels of Ro 15-4513 in hippocampus (GABAA α5 receptor; tracer 1 μg/kg, after vehicle): 1.93 ± 0.05 ng/g
levels of Ro 15-4513 in hippocampus compared with cerebellum (GABAA α5 receptor; tracer 1 μg/kg, after vehicle): > 5 fold

COc1ccc2c(c1)-n1nncc1Cc1c(C#Cc3cnc(OC)c(F)c3)ncn1-2 [Compound 732]
Ki [1]: 100 to 1000 nM

COc1ncc(C#Cc2ncn3c2Cc2cnnn2-c2cc(Cl)ccc2-3)cc1F [Compound 734]
Ki [1]: < 100 nM

CC1(C)CC(=O)c2c(SCCCO)sc(-c3nccs3)c2C1 [6,6 dimethyl-3-(3-hydroxypropyl)thio-1-(thiazol-2-yl)-6,7-dihydro-2-benzothiophen-4(5H)-one]
number of crossings of target annulus versus opposite annulus (aged-impaired (AI) rats [2]; [4]): crossed the “target annulus” more often
time in target annulus versus opposite annulus (aged-impaired (AI) rats [2]; [4]): spent significantly more time in the target annulus
time to find the escape platform (escape latency) (aged-impaired (AI) rats [2]; training block 1): about 24 seconds
time to find the escape platform (escape latency) (aged-impaired (AI) rats [2]; training block 4): about 9.6 seconds

COCc1nnc2n1Cc1c(C#Cc3cn(C)nc3OC)ncn1-c1ccc(Cl)cc1-2 [Compound 737]
Ki [1]: < 100 nM

CCOC(=O)c1ncn2c1Cn1c(C)nnc1-c1cc(OC)ccc1-2 [ethyl 3-methoxy-7-methyl-9H-benzo[f]imidazo[1,5-a][1,2,4]triazolo[4,3-d][1,4]diazepine-10-carboxylate]
memory performance relative to vehicle control (aged-impaired (AI) rats [3]; 3 mg/kg): significantly improved memory performance
memory performance relative to vehicle control (aged-impaired (AI) rats [3]; 10 mg/kg): significantly improved memory performance
effect on Ro 15-4513 binding in hippocampus and cerebellum (GABAA α5 receptor; 0.01-10 mg/kg): reduced Ro 15-4513 binding in hippocampus, without affecting cerebellum levels of Ro 15-4513; also recorded: blocked the binding of Rol54513 in the hippocampus but did not affect binding of Rol5413 in the cerebellum
GABAA α5 receptor occupancy (GABAA α5 receptor; 10 mg/kg): > 90%

COc1ccc2c(c1)-n1nncc1Cc1c(C#Cc3cn(C)nc3OC)ncn1-2 [Compound 735]
Ki [1]: < 100 nM

COCc1nnc2n1Cc1c(C#Cc3cnc(OC)c(C(F)(F)F)c3)ncn1-c1ccc(OC)cc1-2 [Compound 731]
Ki [1]: 100 to 1000 nM
